# Calls of active or inactive are those of the source. The calls are words filed in the database; no cut-off is given here.
# Assays:
# SF-295 = test: Growth inhibition of human SF295 cells at 10 uM by NCI-60 cell inhibition assay; type: functional; conditions: read-out: GI
# SN12C = test: Growth inhibition of human SN12C cells at 10 uM by NCI-60 cell inhibition assay; type: functional; conditions: read-out: GI
# U-251 = test: Growth inhibition of human U251 cells at 10 uM by NCI-60 cell inhibition assay; type: functional; conditions: read-out: GI
# MDA-MB-468 = test: Growth inhibition of human MDA-MB-468 cells at 10 uM by NCI-60 cell inhibition assay; type: functional; conditions: read-out: GI
# Hs 683 [1] = test: Inhibition of eIF2 activity in human Hs683 cells at 0.5 uM after 4 hrs by Western blotting method; type: functional, cell-based
# cells = conditions: Homo sapiens, U373 MG, 72 h
# NCI-H23 = test: Growth inhibition of human NCI-H23 cells at 10 uM by NCI-60 cell inhibition assay; type: functional; conditions: read-out: GI
# SK-MEL-5 = test: Growth inhibition of human SK-MEL-5 cells at 10 uM by NCI-60 cell inhibition assay; type: functional; conditions: read-out: GI
# MDA-MB-231 = test: Growth inhibition of human MDA-MB-231 cells at 10 uM by NCI-60 cell inhibition assay; type: functional; conditions: read-out: GI
# BT-549 = test: Growth inhibition of human BT549 cells at 10 uM by NCI-60 cell inhibition assay; type: functional; conditions: read-out: GI
# SF-268 = test: Growth inhibition of human SF268 cells at 10 uM by NCI-60 cell inhibition assay; type: functional; conditions: read-out: GI
# OVCAR-4 = test: Growth inhibition of human OVCAR4 cells at 10 uM by NCI-60 cell inhibition assay; type: functional; conditions: read-out: GI
# DU-145 = test: Growth inhibition of human DU145 cells at 10 uM by NCI-60 cell inhibition assay; type: functional; conditions: read-out: GI
# OVCAR-3 = test: Growth inhibition of human OVCAR3 cells at 10 uM by NCI-60 cell inhibition assay; type: functional; conditions: read-out: GI
# LOX IMVI = test: Growth inhibition of human LOXIMVI cells at 10 uM by NCI-60 cell inhibition assay; type: functional; conditions: read-out: GI
# OVCAR-8 = test: Growth inhibition of human OVCAR8 cells at 10 uM by NCI-60 cell inhibition assay; type: functional; conditions: read-out: GI
# Hs 683 [2] = test: cells; conditions: Homo sapiens, Hs 683, 72 h
# TK-10 = test: Growth inhibition of human TK10 cells at 10 uM by NCI-60 cell inhibition assay; type: functional; conditions: read-out: GI
# OVCAR-5 = test: Growth inhibition of human OVCAR5 cells at 10 uM by NCI-60 cell inhibition assay; type: functional; conditions: read-out: GI
# Mus musculus = species: Mus musculus; test: Toxicity in mouse assessed as drug tolerance; type: organism-based; conditions: in vivo
# [3] = target: Dual specificity tyrosine-phosphorylation-regulated kinase 1A (Homo sapiens, UniProt Q13627); test: Inhibition of DYRK1A kinase using RBER-CHKtide substrate by radiometric protein kinase assay
Structure (SMILES),inhibition of growth at 10 µM (SF-295) [%],inhibition of growth at 10 µM (SN12C) [%],inhibition of growth at 10 µM (U-251) [%],inhibition of growth at 10 µM (MDA-MB-468) [%],inhibition (Hs 683 [1]),IC50 (cells) [nM],inhibition of growth at 10 µM (NCI-H23) [%],inhibition of growth at 10 µM (SK-MEL-5) [%],inhibition of growth at 10 µM (MDA-MB-231) [%],inhibition of growth at 10 µM (BT-549) [%],inhibition of growth at 10 µM (SF-268) [%],inhibition of growth at 10 µM (OVCAR-4) [%],inhibition of growth at 10 µM (DU-145) [%],inhibition of growth at 10 µM (OVCAR-3) [%],inhibition of growth at 10 µM (LOX IMVI) [%],inhibition of growth at 10 µM (OVCAR-8) [%],IC50 (Hs 683 [2]) [nM],inhibition of growth at 10 µM (TK-10) [%],inhibition of growth at 10 µM (OVCAR-5) [%],Activity (Mus musculus),also measured
Cc1c2c(cc[n+]1Cc1ccccc1)c1ccc(OCc3ccccc3)cc1n2Cc1ccccc1.[Br-],-69.2,-86.6,-80.2,-42.3,Active,440,-12.2,-99.4,-85.1,-90.4,-90.4,-3.79,-33.6,-97.1,-93.2,-70.9,500,11.8,13.5,Toxic,–
Cc1c2c(cc[n+]1Cc1ccccc1)c1ccc(OCC3CCCCC3)cc1n2CC1CCCCC1.[Br-],-92.8,-91.9,-92.5,-86.6,inactive,370,-76.7,-100,-92,-91,-98.7,-94.3,-100,-100,-95.6,-90.1,380,-93.6,-95.5,Toxic,IC50 [3]: 43000 nM

# From ChEMBL document CHEMBL2163222 (J Med Chem, 2012)
